These results are taken from paper PMC11013143, “4-Chloroisocoumarins as Chlamydial Protease Inhibitors and Anti-Chlamydial Agents” (Molecules, 2024).

For series [1], the target named is T1, CtHtrA (Chlamydia trachomatis serovar D, UniProt P18584).
T1 construct: made in house; host or cells: E. coli BL21(DE3), pET22b
Description: CtHtrA protease inhibition assay. Format: biochemical. Conditions: for Relative Selectivity: (relative CtHtrA potency)/(relative HLE potency); for IC50: IC50 against CtHtrA; for IC50 / Relative Potency against CtHtrA: control JO146; for Relative Potency against CtHtrA: [IC50 of control]/[IC50 test compound]. On the procedure:
The inhibitory activity of compounds 2a–g against CtHtrA was evaluated. […] As these compounds are reportedly covalent inhibitors of serine proteases, a true IC50 is unable to be calculated. Instead, the residual activity of the protease is monitored over time in response to a range of compound concentrations, and an IC50 value is interpolated from a dose–response curve (see Figures S2–S4 and Tables S1 and S2). This IC50 value is then compared to a positive control (JO146 was used for 2a–g, and 2g was used for 6a–h), giving the ‘relative potency’. This is the established method for assessing CtHtrA inhibitory potency. […] This effect may be due to depth restrictions within the S1 subpocket, as kinetic studies on the rates of protease inhibition in HLE were reduced by larger C-3 alkoxy substituents. Chain branching (iso-propyl and sec-butyl substituents) increased the activity, resulting in a 1.4-fold increase for 2e over 2b and a 2.8-fold improvement for 2g over 2c.
CtHtrA was expressed using an procedure adapted from the literature. Recombinant E. coli BL21(DE3) pET22b was grown in LB media containing 100 ug/mL ampicillin to an OD600 of 0.5-0.6 in 5 × 400 mL batches at 37 °C. Isopropyl β-D-1-thioglactopyranoside (1 M, 400 µL, 1 mM final concentration) was added to each flask and incubated at 30 °C with shaking at 150 rpm for an additional 2.5 h. The culture was centrifuged at 4000× g for 15 min at 4 °C, and the cell pellet was harvested and resuspended in lysis buffer (50 mM phosphate, 10 mM imidazole, 500 mM NaCl, 0.1% Triton X-100, 10% glycerol). Lysozyme was added to the suspended cells and was sonicated in 15 cycles of 15 s, with one minute between cycles while maintaining 4 °C, and then centrifuged at 8000× g for 20 min to remove any debris, retaining the supernatant for protein purification.
TALON® metal affinity resin (Takara cat no. 635652, 5 mL) was added to each lysate tube and washed sequentially with lysis buffer (2 × 45 mL) and stringency buffer (4 × 45 mL) and then eluted with elution buffer (2 × 5 mL), allowing incubations at 4 °C for 20 min per wash, and centrifuging at 2500× g and 4 °C between washes to pellet the resin. The eluates were dialyzed in Tris buffer (pH 7.0, 50 mM, 4 L) with magnesium chloride (20 mM) at 4 °C five times over 24 h, with a minimum of three hours per dialysis change. Protein expression and isolation were confirmed with SDS-PAGE Coomassie stained gel, which was examined for the band at the correct size, and a BCA assay to confirm purified protein concentration prior to use.
CtHtrA was added to 25 wells in a black 96-well plate (40–80 µL, 10 µL increments), to which Tris-HCl buffer (50 mM, pH 7.0 with 20 mM MgCl2) was added to bring the total volume to 90 µL for 10 wells and 85 µL for the remaining 15. JO146 (10 µM, 5 µL) was added to 5 wells and JO146 (1 µM, 5 µL) was added to another 5 wells, with DMSO (5 µL) being added to the remaining 5 as a control. The plate was incubated at 37 °C for 10 min before substrate (MCA-ENLHLPLPIIFK-DNP, 10 µL, 1 mg/mL, 50% isopropanol in buffer) was added and analyzed in a TECAN Infinite Pro M200 plate reader with an excitation wavelength of 340 nm and fluorescence measured at 405 nm with four reads per well at 60 s intervals. A minimum volume of CtHtrA granting a fluorescence change of 300 min^−1 was used for subsequent assay.
The determined appropriate volume of CtHtrA in buffer was added to a 96-well non-transparent black plate and diluted to 85 µL with buffer solution. Drug or control (5 µL) at a maximum of 20% DMSO/80% buffer was added to the appropriate well with DMSO controls, and the plate was incubated for 10 min to allow activation by the protein. MCA-ENLHLPLPIIFK-DNP (Mimotopes, Australia, 1 mg/mL, 10 µL) was added and immediately monitored on a TECAN M200 Infinite plate reader at 37 °C every 60 s for 30 min, using the same wavelengths as for the activity evaluation. […]

The subject of series [2] is HEp-2 cells. Description: MTS cell viability assay, HEp-2 cells. Format: cell-based, human. To be noted: 62.5 and 31.25 µM, 24 h. As to the method: (§1) The cytotoxic effects of the 4-chloroisocoumarin compounds 2a–g and 6a–h (24 h) were tested against HEp-2 and McCoy B cells using the MTS cell viability assay. HEp-2 and McCoy B cells were selected, as these are routinely used for the cultivation of chlamydial species, and low cytotoxicity against host cells is required to evaluate the anti-chlamydial properties of a test compound [27].
(§2) HEp-2 (human epithelial type 2, CCL-23, ATCC®, Virginia, USA) or McCoy B (mouse fibroblast, CRL-1696, ATCC®) cells were grown to 80–100% confluence, and cell density was determined with a haemocytometer. Cells were then diluted to 1 × 10^5 cells/mL, and 100 µL was added to each well in a 96-well plate, with 3 wells left as controls. Cells were grown for 24 h, and the media was removed and then replaced with fresh media containing 0.1% DMSO and the drug for testing in triplicate. Drugs and cells were incubated for 24 h, and then 20 µL of MTS and PMS solution was added and then incubated for a further four hours. Absorbance was measured at 490 nm on a TECAN M200 Infinite plate reader and data were processed using Microsoft Excel^TM with the following equation to determine cell viability relative to DMSO controls. Cellviability%=AbsorbanceDrug−AbsorbanceDye/AbsorbanceDMSO−AbsorbanceDye
(Tetrazolium assays rely on reduction of a dye to a coloured formazan, in cell work by metabolically active cells.)

Series [3] in a line: MTS cell viability assay, HEp-2 cells. It counts as cell-based, human. To be noted: human, HEp-2 cells, 125 µM, read-out: HEp-2 cell viability, % of DMSO-treated control cells. As to the method:
as §1, §2

The target in series [4] is T2, Human Leukocyte Elastase (HLE) (Homo sapiens, UniProt P08246).
T2 construct: purchased Athens Research and Technology 16-15-051200
T2 sequence (P08246 30-247 limits assumed): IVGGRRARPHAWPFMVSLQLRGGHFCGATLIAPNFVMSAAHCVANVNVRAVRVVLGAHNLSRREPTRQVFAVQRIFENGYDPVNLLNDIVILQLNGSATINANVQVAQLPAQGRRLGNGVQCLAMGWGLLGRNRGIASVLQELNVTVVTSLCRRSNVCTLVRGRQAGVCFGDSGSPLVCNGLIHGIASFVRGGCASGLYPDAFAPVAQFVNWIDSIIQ
The series can be described thus: HLE protease inhibition assay. It counts as biochemical. To be noted: for Relative Potency against HLE: [IC50 of JO146]/[IC50 test compound]. As to the method:
Elastase was purchased from Athens Research and Technology (Cat No. 16-15-051200). Elastase (100 µg) was dissolved in Tris buffer (100 mM Tris, 20 mM CaCl2, pH 8.1, 3.14 mL), giving a concentration of 1.117 µM, and 25 µL was added to each well containing the respective inhibitor. The plate was incubated at 37 °C for 15 min.
N-Suc-AAA-pNA (Sigma Aldrich, Bayswater, Australia, S4760, 100 µL, 1 mg/mL, […]) was added to each well, and the absorbance was monitored every six minutes at 405 nm. The rate of change of absorbance was used as a comparison to controls to determine the % inhibition of protein in Microsoft Excel^TM (v2402), and these values were exported to GraphPad Prism (v8.0.1) for IC50 calculation.

In series [5] the target is T1, CtHtrA. Also noted: method as in PMID 23796320. To be noted: read-out: IC50 against CtHtrA; reversible covalent complex with CtHtrA; cited from earlier work.

Usually IC50 stands for the midpoint of a concentration-inhibition curve. For orientation: viability means a per cent measure of how many cells are alive, often set against a control.

Where two headings read alike, the source gives them in different places.

T1 sequence (P18584 17-497): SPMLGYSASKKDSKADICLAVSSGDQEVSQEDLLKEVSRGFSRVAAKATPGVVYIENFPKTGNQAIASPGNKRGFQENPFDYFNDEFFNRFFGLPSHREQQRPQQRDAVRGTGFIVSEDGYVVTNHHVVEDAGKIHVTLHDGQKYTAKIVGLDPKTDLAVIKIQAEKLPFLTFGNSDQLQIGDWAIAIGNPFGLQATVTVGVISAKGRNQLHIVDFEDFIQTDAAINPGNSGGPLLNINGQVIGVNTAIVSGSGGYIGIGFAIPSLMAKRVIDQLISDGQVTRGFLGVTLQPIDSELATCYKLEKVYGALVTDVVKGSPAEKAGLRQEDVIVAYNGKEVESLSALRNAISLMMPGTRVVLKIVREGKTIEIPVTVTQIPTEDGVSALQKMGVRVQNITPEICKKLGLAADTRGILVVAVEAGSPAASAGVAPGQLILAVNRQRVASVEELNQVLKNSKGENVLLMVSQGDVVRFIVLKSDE

Regarding `COc1oc(=O)c2ccccc2c1Cl` [Compound 2a, 3-Methoxy-4-chloroisocoumarin], in series [1], the “Relative Selectivity” value was 113.0 and the “Relative Potency against CtHtrA” value is 2.33. The same molecule showed an IC50 in series [1] (Table S2, Batch 1) of 30.6 µM. The “effect on HEp-2 cell viability” value in series [2] is listed as “did not produce significant effects”. For the same molecule, in series [3], the viability at 24 h, 125 µM was determined as 50%. Also, the half-maximal inhibitory concentration (IC50) in series [4] (Table S1, variable slope four parameter fit, read-out: IC50 against HLE) came to 39.5 µM. Besides, the “Relative Potency against HLE” value in series [4] came out at 0.0207.
Take `CC(C)[C@H](NC(=O)OC(C)(C)C)C(=O)N1CCCC1C(=O)N[C@@H](C(C)C)P(=O)(Oc1ccccc1)Oc1ccccc1` (some centres unmarked) [JO146, reference compound]: the “Relative Selectivity” value in series [1] amounted to 1.00. In addition, the concentration for half-maximal inhibition (IC50) in series [1] (Table S2, Batch 1) was 71.5 µM; in series [1] (Table S2, Batch 2), 60 µM; in series [5] it was 12 µM; in series [4] it was 0.817 µM. Further, the “Relative Potency against CtHtrA” value in series [1] is recorded as 1.00. In series [4], the “Relative Potency against HLE” value stood at 1.00.
